Reference: patent publication EP0584256B1, “COMPOUNDS AND PHARMACEUTICAL COMPOSITIONS FOR DETECTING AND LOCALIZING TISSUES HAVING NEUROKININE 1 RECEPTORS” (MALLINCKRODT MEDICAL, INC., priority 1991, dated 1999)

Tests used:
[1] = system: human meningioma membranes; experiment: Binding of [125I]BH-SP to human meningioma membranes; settings: Figure 1
Experimental: (§1) Binding studies in vitro are carried out in a standardized system by studying the displacement of ^125I-Bolton Hunter substance P {[^125I]BH-SP} by the above-synthetized labelled peptides.

[2] = system: SP-receptors; experiment: Displacement of / binding of [125I]BH-SP, human glioma membranes; settings: Figure 1
Experimental: as §1

[3] = type: in vitro ADME, rat
Excerpt: A liver perfusion model is used as described by Docter et al. in Endocrinology 1990, 126, 451-459. It is a generally accepted fact in this art, that handling of bio-active substances by the isolated perfused rat liver according to this model has a very good predictable value for the appearance of metabolites of the used substance in the circulation of human beings. In short, in this model isolated livers are perfused in a recirculating system with Krebs-Ringer medium supplemented with 1% bovine serum albumin and 10 mM glucose. After 0.5 hr preperfusion, experiments are started by addition of the labelled substance P (5 µCi) to the medium. At regular time points medium samples are taken. Medium samples are analyzed by column chromatography, using Seppak^(R) C-18 columns.
The average results are presented in Figures 4-6, showing the disappearance of the total radioactivity ("tot. act.") and of the peptide-bound radioactivity ("protein") with concomitant appearance of non-peptide bound radioactivity in the circulating medium as a degradation product.
Figures 7-9 show the excretion of the tested labelled peptides into the bile.

[4] = system: SP-receptors; experiment: Displacement of / binding of [125I]BH-SP, rat brain cortex membranes; settings: membranes of the cortex of rat brains; Figure 1
Experimental: as §1

Substance: [^125I]BH-SP: ^125I-Bolton Hunter substance P, known radioligand from in vitro binding studies
- specific binding to membranes [1]: not
- specific binding to membranes [2]: specifically binds
- liver metabolic clearance [3]: relatively fast
- specific binding to membranes [4]: specifically binds
